The target of data set [1] is T1, human vasopressin V1a receptor subtype (Homo sapiens, UniProt P37288).
T1 construct: host or cells: CHO cells, stably transfected (pZeoSV vector for the Thibonnier line); membranes
Briefly: Vasopressin binding in CHO cell membranes expressing human vasopressin V1a subtype receptors ([3H]Manning ligand). Conditions: for inhibition at 0.1 µM / V1a % inhibition @ 100 nM: 100 nM, value without parentheses; for IC50: value in parentheses. The text has this:
Vasopressin Binding in Chinese Hamster Ovary Cell Membranes Expressing Human Vasopressin V1a Subtype Receptors
Chinese hamster ovary cells (CHO cells) stably transfected with the human vasopressin V1a subtype receptors were either obtained from Biosignal Inc., 1744 rue Williams, Montreal, Quebec, Canada or obtained from M. Thibonnier, Case Western Reserve University School of Medicine, Cleveland, Ohio.
A. Passaging and Amplification of Cells:
CHO cells transfected with the human vasopressin V1a subtype receptors obtained from M. Thibonnier (pZeoSV vector) are allowed to grow to confluency (approx. >90%) in T-150 flasks under sterile conditions, in a cell culture medium of F-12 Nutrient Mixture (HAM) with L-glutamine (Gibco Cat. #11765-054) containing 15 mM HEPES (Gibco Cat. #15630-080), 1% antibiotic/antimycotic (add 5 mL 100×, Gibco Cat. #15240-062 per 500 mL F-12), 250 μg/mL Zeocin (add 1.25 mL of 100 mg/mL Invitrogen R-250-01 per 500 mL F-12) and 10% Fetal Bovine Serum (Qualified, heat inactivated, Gibco Cat. #16140-063). The medium is removed by aspiration and the cells are washed with 10 mL of Hank's Balanced Salt solution (Gibco Cat. #14175-095). The salt solution is removed by aspiration and the cells are trypsinized with 5 mL of trypsin-EDTA (0.05% trypsin, 0.53 mM EDTA-4Na, Gibco Cat. #25300-070) for 1 min. The trypsin is removed by aspiration and the cells dislodged by tapping. Cell Culture medium (eg, 30 mL for 1:30 split) is immediately added and mixed well to inactivate trypsin. 1 mL of detached cells is added to new culture flasks containing fresh cell culture medium (eg, into 25 mL per T-150 flask), and mixed gently. The cells are incubated at 37° C. in 5% CO2. The medium is changed at 3 to 4 days interval (or as appropriate). The cells grow to confluency (approx. >75%-95%) within 7-8 days. All steps are done under sterile conditions.
The cells are washed twice gently with Hank's Balanced Salt solution (e.g,. use 10 mL per T-150 flask). The excess is removed and the cells are bathed for 15-30 min. in an enzyme-free Cell Dissociation Buffer (e.g. use 8 mL Hank's Based, Gibco Cat. #13150-016 per T-150 flask) until the cells are loosened. The contents are transferred to centrifuge tubes (50 mL size) kept in ice bath. All subsequent steps are done at 4° C. The tubes are centrifuged at 300×g for 15 min (1380 rpm on SORVAL, Model RT6000D, using rotor for 50 mL tubes). The supernatant is discarded and the cells suspended in homogeneizing buffer(10 mM Tris-HCl containing 0.25 M sucrose and 1 mM EDTA, pH 7.4) ensuring that the volume of the buffer is about ten times the volume of the cell pellet. The cells are pooled into a centrifuge tube (50 mL) and homogenized with Polytron at setting 6 for 10 sec. The homogenate is transferred into a Potter-Elvjehm homogenizer and homogenized with 3 strokes. The homogenate is centrifuged at 1500×g for 10 min at 4° C. (3100 rpm using SORVAL, model RT6000D, using rotor for 50 mL tubes). The pellet is discarded. The supernatant is centrifuged at 100,000×g for 60 min. at 4° C. (Beckman L8-80M ultracentrifuge; spin at 37,500 rpm with rotor type 70 Ti for 50 mL tubes; 38,000 rpm with type 80Ti for 15 mL tubes; or 35,800 rpm with rotor type 45Ti). The supemantant is discarded and the pellet suspended in 3 to 4 mL of Tris buffer (50 mM TRIS-HCl, pH 7.4). The protein content is estimated by the Bradford or Lowry method. The volume of the membrane suspension is adjusted with the membrane buffer (50 mM Tris-HCl containing 0.1% BSA and 0.1 mM PMSF) to give 3.0 mg/mL (or as appropriate) of protein. The membranes are aliquoted and stored at −70° C.
C. Radioligand Binding Assay: […]

T1 sequence (P37288 whole entry): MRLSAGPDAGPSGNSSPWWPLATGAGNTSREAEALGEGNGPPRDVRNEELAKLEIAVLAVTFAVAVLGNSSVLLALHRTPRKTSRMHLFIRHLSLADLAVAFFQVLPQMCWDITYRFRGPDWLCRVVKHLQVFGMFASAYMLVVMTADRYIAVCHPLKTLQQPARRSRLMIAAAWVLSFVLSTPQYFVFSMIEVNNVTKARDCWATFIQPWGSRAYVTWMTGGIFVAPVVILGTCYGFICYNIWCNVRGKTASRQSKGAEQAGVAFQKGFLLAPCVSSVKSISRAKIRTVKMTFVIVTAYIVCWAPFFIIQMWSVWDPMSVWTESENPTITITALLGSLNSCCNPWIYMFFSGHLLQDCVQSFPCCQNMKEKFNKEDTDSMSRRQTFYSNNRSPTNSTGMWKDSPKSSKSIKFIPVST

Broadly, the inhibition is the change of the read-out against control, counted positive when it falls. Take `Cc1cc(C(=O)N2Cc3ccc(C(=O)N[C@H](CO)C(=O)O)n3Cc3ccccc32)ccc1C1=CCCCC1` [Example 14, (2R)-2-{[10-(4-Cyclohex-1-en-1-yl-3-methyl-benzoyl)-10,11-dihydro-5H-pyrrolo[2,1-c][1,4]benzodiazepine-3-carbonyl]-amino}-3-hydroxy-propionic acid]: the inhibition at 0.1 µM in data set [1] was found to be 6%. Regarding `Cc1cc(C(=O)N2Cc3ccc(C(=O)N(CCO)CCO)n3Cc3ccccc32)ccc1C1=CCCc2ccccc21` [Example 16, {10-[4-(3,4-Dihydro-naphthalen-1-yl)-3-methyl-benzoyl]-10,11-dihydro-5H-pyrrolo[2,1-c][1,4]benzodiazepin-3-yl}-3-carboxylic acid bis-(2-hydroxy-ethyl)-amide], in data set [1], the “V1a % inhibition @ 100 nM” value was 6%. The melting point is the temperature, or range, at which the solid turns liquid. The term IC50 denotes the concentration that inhibits the measured activity by half. `Cc1cc(C(=O)N2Cc3ccc(C(=O)N(C)C[C@H](O)[C@H]4OC(=O)O[C@@H]4[C@H](O)CO)n3Cc3ccccc32)ccc1C1=CCCCC1` [Example 6, 10-(4-Cyclohex-1-en-1-yl-3-methylbenzoyl)-N-((2S)-2-{(4R,5R)-5-[(1R)-1,2-dihydroxyethyl]-2-oxo-1,3-dioxolan-4-yl}-2-hydroxyethyl)-N-methyl-10,11-dihydro-5H-pyrrolo[2,1-c][1,4]benzodiazepine-3-carboxamide] had a melting point of 166 to 175 °C. Besides, in data set [1], the IC50 turned out to be 62.4 nM.

Turning to `Cc1cc(C(=O)N2Cc3ccc(C(=O)C(Cl)(Cl)Cl)n3Cc3ccccc32)ccc1C1=CCCCC1` [Example 5D, 2,2,2-Trichloro-1-[10-(4-cyclohex-1-en-1-yl-3-methyl-benzoyl)-10,11-dihydro-5H-pyrrolo[2,1-c][1,4]benzodiazepin-3-yl]-methanone], the “V1a % inhibition @ 100 nM” value in data set [1] came out at 0%. Compound `COc1cc(C2=CCCCC2)c(Cl)cc1C(=O)N1Cc2ccc(C(=O)N(C)C[C@@H]3OC(=O)O[C@H]3[C@H](O)[C@H]3COC(=O)O3)n2Cc2ccccc21` [Example 3, 10-(5-Chloro-4-cyclohex-1-en-1-yl-2-methoxybenzoyl)-N-[((4S,5S)-5-{(R)-hydroxy[(4R)-2-oxo-1,3-dioxolan-4-yl]methyl}-2-oxo-1,3-dioxolan-4-yl)methyl]-N-methyl-10,11-dihydro-5H-pyrrolo[2,1-c][1,4]benzodiazepine-3-carboxamide] showed a melting point of 163 to 176 °C. For the same compound, in data set [1], the IC50 worked out at 1460 nM. In turn, `COc1cc(C2=CCCCC2)c(Cl)cc1C(=O)N1Cc2ccc(C(=O)N(C)C[C@H](O)[C@@H](O)[C@H](O)[C@H](O)CO)n2Cc2ccccc21` [Example 1, 1-[[[10-[5-Chloro-4-(1-cyclohex-1-en-1-yl)-2-methoxybenzoyl]-10,11-dihydro-5H-pyrrolo[2,1-c][1,4]benzodiazepin-3-yl]carbonyl]methylamino]-1-deoxy-D-glucitol] registered a melting point of 72 to 73 °C. In addition, the IC50 in data set [1] stood at 879 nM. Take `Cc1cc(C(=O)N2Cc3ccc(C(=O)O)n3Cc3ccccc32)ccc1C1=CCCCC1` [Example 5E, 10-(4-Cyclohex-1-en-1-yl-3-methyl-benzoyl)-10,11-dihydro-5H-pyrrolo[2,1-c][1,4]benzodiazepine-3-carboxylic acid]: the inhibition at 0.1 µM in data set [1] was found to be 8%. `COC[C@@H](OC)[C@@H](OC)[C@H](OC)[C@H](CN(C)C(=O)c1ccc2n1Cc1ccccc1N(C(=O)c1ccc(C3=CCCCC3)c(C)c1)C2)OC` [Example 8, 10-(4-Cyclohex-1-en-1-yl-3-methylbenzoyl)-N-methyl-N-[(2S,3R,4R,5R)-2,3,4,5,6-pentamethoxyhexyl]-10,11-dihydro-5H-pyrrolo[2,1-c][1,4]benzodiazepine-3-carboxamide] had a melting point of 68 to 83 °C. The IC50 in data set [1] stood at 315 nM. For `COC(=O)[C@H](CO)NC(=O)c1ccc2n1Cc1ccccc1N(C(=O)c1ccc(C3=CCCCC3)c(C)c1)C2` [Example 11, (2S)-2-{[10-(4-Cyclohex-1-en-1-yl-3-methyl-benzoyl)-10,11-dihydro-5H-pyrrolo[2,1-c][1,4]benzodiazepine-3-carbonyl]-amino}-3-hydroxy-propionic acid methyl ester], in data set [1], the inhibition at 0.1 µM is 6%. `Cc1cc(C(=O)N2Cc3ccc(C(=O)N[C@@H](CO)C(=O)O)n3Cc3ccccc32)ccc1C1=CCCCC1` [Example 13, (2S)-2-{[10-(4-Cyclohex-1-en-1-yl-3-methyl-benzoyl)-10,11-dihydro-5H-pyrrolo[2,1-c][1,4]benzodiazepine-3-carbonyl]-amino}-3-hydroxy-propionic acid]: the inhibition at 0.1 µM in data set [1] worked out at 5%. On to `Cc1cc(C(=O)N2Cc3ccc(C(=O)N(C)C[C@H](O)[C@@H](O)[C@H](O)[C@H](O)CO)n3Cc3ccccc32)ccc1C1=CCCc2ccccc21` [Example 15], for which the IC50 in data set [1] was 646 nM. `COC[C@@H](OC)[C@@H](OC)[C@H](OC)[C@H](CN(C)C(=O)c1ccc2n1Cc1ccccc1N(C(=O)c1cc(Cl)c(C3=CCCCC3)cc1OC)C2)OC` [Example 2, 10-(5-Chloro-4-cyclohex-1-en-1-yl-2-methoxybenzoyl)-N-methyl-N-[(2S,3R,4R,5R)-2,3,4,5,6-pentamethoxyhexyl]-10,11-dihydro-5H-pyrrolo[2,1-c][1,4]benzodiazepine-3-carboxamide]: the IC50 in data set [1] is 2190 nM. Take `COc1cc(C2=CCCCC2)c(Cl)cc1C(=O)N1Cc2ccc(C(=O)O)n2Cc2ccccc21` [Example 1G, 10-(5-Chloro-4-cyclohex-1-en-1-yl-2-methoxybenzoyl)-10,11-dihydro-5H-pyrrolo[2,1-c][1,4]benzodiazepine-3-carboxylic acid]: the inhibition at 0.1 µM in data set [1] came out at 0%. As to `COC(=O)[C@@H](CO)NC(=O)c1ccc2n1Cc1ccccc1N(C(=O)c1ccc(C3=CCCCC3)c(C)c1)C2` [Example 12, (2R)-2-{[10-(4-Cyclohex-1-en-1-yl-3-methyl-benzoyl)-10,11-dihydro-5H-pyrrolo[2,1-c][1,4]benzodiazepine-3-carbonyl]-amino}-3-hydroxy-propionic acid methyl ester], the inhibition at 0.1 µM in data set [1] is 16%.

For `Cc1cc(C(=O)N2Cc3ccc(C(=O)O)n3Cc3ccccc32)ccc1C1=CCCc2ccccc21` [Example 15B, 10-[4-(3,4-Dihydro-naphthalen-1-yl)-3-methyl-benzoyl]-10,11-dihydro-5H-pyrrolo[2,1-c][1,4]benzodiazepine-3-carboxylic acid], the inhibition at 0.1 µM in data set [1] was -2%. `Cc1cc(C(=O)N2Cc3ccc(C(=O)N[C@@H](Cc4ccc(O)cc4)C(=O)O)n3Cc3ccccc32)ccc1C1=CCCCC1` [Example 10]: the “V1a % inhibition @ 100 nM” value in data set [1] came to 14%. For the compound `Cc1cc(C(=O)N2Cc3ccc(C(=O)N4CCN(CCO)CC4)n3Cc3ccccc32)ccc1C1=CCCCC1` [Example 17, {10-[4-(1-Cyclohex-1-en-1-yl)-3-methylbenzoyl]-10,11-dihydro-5H-pyrrolo[2,1-c][1,4]benzodiazepin-3-yl}[4-(2-hydroxyethyl)-1-piperazinyl]methanone], the “V1a % inhibition @ 100 nM” value in data set [1] amounted to 31%. As to `Cc1cc(C(=O)N2Cc3ccc(C(=O)N(C)C[C@H](O)[C@@H](O)[C@H](O)[C@H](O)CO)n3Cc3ccccc32)ccc1C1=CCCCC1` [Example 5], in data set [1], the IC50 was determined as 182 nM. In the case of `CCOC(=O)[C@H](Cc1ccc(O)cc1)NC(=O)c1ccc2n1Cc1ccccc1N(C(=O)c1ccc(C3=CCCCC3)c(C)c1)C2` [Example 9, (2S)-2-{[10-(4-Cyclohex-1-en-1-yl-3-methyl-benzoyl)-10,11-dihydro-5H-pyrrolo[2,1-c][1,4]benzodiazepine-3-carbonyl]-amino}-3-(4-hydroxy-phenyl)-propionic acid ethyl ester], in data set [1], the inhibition at 0.1 µM was found to be 6%.
